Reference: patent US9695193B2, “Inhibitors of Plasmodium falciparum equilibrative nucleoside transporter type I as anti-parasitic compounds” (The Trustees of Columbia University in the City of New York, priority 2013, dated 2017)
Where two headings read alike, the source gives them in different places.

Assays:
Type in all cases: cell-based
PfENT1 = biological target: T1, PfENT1 (Plasmodium falciparum, UniProt Q8IDM6); conditions: primary HTS, compounds at 10 μM, 125 μM 5-FUrd
T1 construct: expressed in transfected cells; host or cells: fui1Δ yeast (Saccharomyces cerevisiae), co-expressing GFP
Outline: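 fui1Δ yeast expressing PfENT1 and GFP were grown with 125 μM 5-fluorouridine, so growth reflects blocked 5-FUrd uptake. Compounds were screened at 10 μM. Growth scored by OD620 turbidity and GFP fluorescence, and hits had to be positive on both.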

PfENT1-HA-CO = biological target: T2, PfENT1-HA-CO (Plasmodium falciparum, UniProt Q8IDM6); assay: Concentration-dependent rescue of PfENT1-HA-CO-expressing fui1Δ yeast from 5-FUrd induced death
T2 construct: HA; expressed in transfected cells; host or cells: fui1Δ yeast (Saccharomyces cerevisiae)
Method: In the primary screen the compounds were tested at a concentration of 10 μM. Hits were identified by the growth of fui1Δ yeast expressing PfENT1 and Green Fluorescent Protein (GFP) in the presence of the cytotoxic nucleoside 5-fluorouridine (5-FUrd). 5-FUrd is transported by PfENT1. PfENT1 expressing fui1Δ yeast will only grow in the presence of 125 μM 5-FUrd if a PfENT1 inhibitor blocks the uptake of 5-FUrd into the yeast. Significant yeast growth in the HTS in 384 well plates was determined by two criteria: 1) turbidity as determined by the optical density at 620 nm (OD620) and 2) GFP fluorescence intensity. Positive responses were signal intensities greater than four standard deviations above the mean of the negative growth control wells. Hits had to be positive by both criteria. From the library screen, 171 chemical entities were identified as positive by both criteria (Table 2).
Of the 171 hits from the primary HTS, nine were chosen for more extensive validation using a series of secondary assays. These nine compounds included the top seven hits (HTS rank #1-7 as indicated in Tables 1 and 2), the first hit identified (compound HTS rank #19) and compound HTS rank #13, which was a unique chemical scaffold relative to the other 8 compounds. The secondary assays used to validate the nine selected hits include 1) repeat of the primary HTS using a series of compound concentrations to determine the concentration-response relationship for each compound, 2) testing in an alternative yeast-based assay in purine auxotrophic ade2Δ yeast expressing PfENT1 (described below, FIG. 1 and FIG. 4B), and 3) a Plasmodium falciparum cytotoxicity assay (described below, FIGS. 5A-B.). These assays allowed further confirmation the hits, determining the concentration-response relationships in the yeast-based assays and the concentration dependence of their ability to kill Plasmodium falciparum parasites during growth in in vitro culture. There was a roughly linear correlation between the compounds' IC50s measured in the two yeast-based assays. All nine compounds were tested in the P. falciparum cytotoxicity assay (FIGS. 5A-B).
(§1) The means values from single experiments are shown. In the key, CQ=chloroquine, and the Table 1 compounds are referenced as symbols indicating HTS rank #1-7, 13, and 19. In this assay, inhibitors of PfENT1 […] yeast growth (FIGS. 4B-C).

PfENT1-CO = biological target: T3, PfENT1-CO (Plasmodium falciparum, UniProt Q8IDM6); assay: [3H]adenosine uptake into PfENT1-CO expressing ade2Δ yeast; conditions: uptake over 15 minutes; Mean ± SD, N ≧ 3
T3 construct: expressed in transfected cells; host or cells: purine auxotrophic ade2Δ yeast (Saccharomyces cerevisiae)
From the text: FIGS. 4A-C are graphs showing the validation of selected compounds identified as Plasmodium falciparum Equilibrative Nucleoside Transporter Type I (PfENT1) inhibitors in the high-throughput screen (HTS). […] The means values from single experiments are shown. In the key, CQ=chloroquine, and the Table 1 compounds are referenced as symbols indicating HTS rank #1-7, 13, and 19.
as §1

[1] = system: P. falciparum 3D7 parasites; assay: [3H]adenosine uptake into trophozoite-stage P. falciparum 3D7 parasites; conditions: Plasmodium falciparum, uptake over 15 minutes, Mean ± SD, N ≧ 3
From the text: FIGS. 5A-E are graphs and images reflecting the inhibitory effects of selected PfENT1 inhibiting compounds with P. falciparum. FIGS. 5A-C are graphs illustrating the inhibitory effects of selected PfENT1 inhibiting compounds with P. falciparum.

[2] = system: P. falciparum parasites (3D7 strain); assay: Plasmodium falciparum cytotoxicity assay (3D7 strain, SYBR-Green); conditions: 72-96 hours, Mean ± SD
Method: Plasmodium falciparum Cytotoxicity Assay
P. falciparum parasites (3D7 strain-chloroquine sensitive) are grown in in vitro culture in human erythrocytes. Each well is inoculated with a low density of parasites in standard parasite growth media with supplemented hypoxanthine (10 or 367 μM). Increasing concentrations of drugs are added and parasites are allowed to grow for 72-96 hours in 5% CO2/5% O2/90% N2 gas at 37° C. At the end of the experiment, parasites are lysed, SYBR-Green dye in lysis solution is added and the fluorescence intensity is measured for each well.

Dd2 parasite = assay: Plasmodium falciparum parasite viability assay (Dd2); conditions: Dd2, high purine media, Mean ± SD
[3] = 3D7, high purine media (hypoxanthine 367 μM), read-out: IC50 3D7 parasite viability-high purine media
[4] = 3D7, low purine media (hypoxanthine 10 μM), read-out: IC50 3D7 parasite viability-low purine media

T3 sequence (Q8IDM6 whole entry): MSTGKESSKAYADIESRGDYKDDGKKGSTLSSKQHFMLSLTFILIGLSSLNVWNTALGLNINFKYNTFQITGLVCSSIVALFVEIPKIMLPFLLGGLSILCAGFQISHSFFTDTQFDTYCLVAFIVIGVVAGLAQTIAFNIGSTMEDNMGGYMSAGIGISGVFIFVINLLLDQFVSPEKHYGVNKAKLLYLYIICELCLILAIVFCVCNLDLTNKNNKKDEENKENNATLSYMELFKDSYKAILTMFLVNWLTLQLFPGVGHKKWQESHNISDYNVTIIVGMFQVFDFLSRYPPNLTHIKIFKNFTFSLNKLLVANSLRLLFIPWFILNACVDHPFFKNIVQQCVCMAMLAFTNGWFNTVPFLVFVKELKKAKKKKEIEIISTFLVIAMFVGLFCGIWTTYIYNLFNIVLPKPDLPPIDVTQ
T1 sequence (Q8IDM6 whole entry): as above
T2 sequence (Q8IDM6 whole entry): as above

With COc1ccccc1C(=O)Nc1cccc(-c2nc3ncccc3o2)c1 [compound 7, 2-methoxy-N-(3-[1,3]oxazolo [4,5-b]pyridin-2-ylphenyl)benzamide] the “Avg Normalized % maximal activity” value (PfENT1) was 55.05%, the IC50 (PfENT1-HA-CO) was 6.4 ± 0.9 µM and the IC50 (PfENT1-CO) was 0.0109 ± 0.0068 µM. The IC50 [1] was 0.0248 ± 0.0174 µM, the IC50 [2, 3] was 44.8 ± 3.8 µM and the IC50 [2, 4] was 43.6 ± 4.4 µM. It also gave an IC50 (Dd2 parasite) of 31 ± 0.6 µM.

With O=C(Nc1cccc(-c2nc3ncccc3o2)c1)c1cccc(F)c1 [compound 6, 3-fluoro-N-(3-[1,3]oxazolo [4,5-b]pyridin-2-ylphenyl)benzamide] the “Avg Normalized % maximal activity” value (PfENT1) was 59.06%, the IC50 (PfENT1-HA-CO) was 5.7 ± 1.3 µM and the IC50 (PfENT1-CO) was 0.0096 ± 0.0074 µM. The IC50 [1] was 0.0198 ± 0.0129 µM, the IC50 [2, 3] was 33.7 ± 5 µM and the IC50 [2, 4] was 34.8 ± 2.4 µM. It also gave an IC50 (Dd2 parasite) of 38.8 ± 4.9 µM.

For O=C(Nc1ccc(Cl)c(-c2nc3ncccc3o2)c1)c1cccs1 [compound 19, N-(4-chloro-3-[1,3]oxazolo [4,5-b]pyridin-2-ylphenyl)-2-thiophenecarboxamide], the “Avg Normalized % maximal activity” value (PfENT1) was 21.24%, the IC50 (PfENT1-HA-CO) was 5.4 ± 0.8 µM and the IC50 (PfENT1-CO) was 0.0384 ± 0.0165 µM. The IC50 [1] was 0.0179 ± 0.0127 µM, the IC50 [2, 3] was 42.9 ± 2.8 µM and the IC50 [2, 4] was 43.2 ± 2.9 µM. It also gave an IC50 (Dd2 parasite) of 37.4 ± 1.6 µM.

With Cn1cc(C(=O)C(=O)Nc2ccc(C(=O)N3CCCC3)cc2)c2ccccc21 [compound 5, 2-(1-methyl-1H-indol-3-yl)-2-oxo-N-[4-(pyrrolidin-1-ylcarbonyl)phenyl]acetamide] the “Avg Normalized % maximal activity” value (PfENT1) was 64.07%, the IC50 (PfENT1-HA-CO) was 6.5 ± 1.5 µM and the IC50 (PfENT1-CO) was 0.0227 ± 0.0072 µM. The IC50 [1] was 0.0386 ± 0.0201 µM, the IC50 [2, 3] was 33.1 ± 0.5 µM and the IC50 [2, 4] was 35.5 ± 0.7 µM. It also gave an IC50 (Dd2 parasite) of 28.9 ± 2.6 µM.

In the case of O=C(Nc1ccc2nc(NC(=O)c3ccco3)sc2c1)c1ccco1 [compound 1], the “Avg Normalized % maximal activity” value (PfENT1) is reported as 97.22%, the IC50 (PfENT1-HA-CO) is reported as 0.8 µM and the IC50 (PfENT1-CO) is reported as 0.003 ± 0.0013 µM. It also gave an IC50 [1] of 0.0054 ± 0.0029 µM, an IC50 [2, 3] of 37.7 ± 2 µM and an IC50 [2, 4] of 31.1 ± 4.7 µM. The IC50 (Dd2 parasite) was 25.8 ± 1.3 µM.
